Data from patent publication US8765791B2, “Method of treating cancer using a neuropeptide Y 5R (NP Y5R) antagonist” (University Health Network, priority 2008, dated 2014).

What was measured:
[1] = system: Breast cancer cells, MDA MB 468; assay: breast cancer xenograft model (Example 11); format: in vivo, SCID mice; conditions: 10 mg/kg i.p. 3/week, approximately 4 weeks
Protocol: Breast cancer cells, MDA MB 468 (12 million), were injected subcutaneously (s.c.) on the neck of SCID mice (CB17, female, 4-6 weeks old) (Charles River, Wilmington, Mass.). The mice were divided into four groups, 5 mice for each group. The treatments were started when the tumor volume reached about 100 mm^3, day 22 after tumor implantation. […] The tumor sizes were monitored every 3 or 4 days. […] (FIG. 12)

[2] = system: Breast cancer cells, MDA MB 468; assay: breast cancer xenograft model, MK0557 and 5-FU (Example 15); format: in vivo, CB17-SCID; conditions: 5-FU alone, 30 mg/kg ip q.d.×5 days
Protocol: Breast cancer cells, MDA MB 468, were injected into CB17-SCID. The treatments were started day 14 after tumor implantation. […] Tumor volume and tumor growth were monitored during the experiment.

[3] = system: Hodgkin Lymphoma cells, HD-MYZ; assay: Hodgkin's lymphoma xenograft model, MK-0557 and 200464 (Example 16); format: in vivo; conditions: for inhibition rate (tumor volume) / inhibition rate (tumor weight): versus vehicle
From the text: Hodgkin lymphoma cells, HD-MYZ, were implanted in NOD-SCID mice, female, 4-6 weeks from Jackson's Laboratory (Maine). The treatments were started day 6 after tumor implantation. The mice were divided to six groups, 4-5 mice from each group. The treatment started with a tumor volume of about 70 mm3 after tumor implantation.

[4] = system: Hodgkin Lymphoma cells, HD-MYZ; assay: Hodgkin lymphoma xenograft model (Example 12); format: in vivo, NOD-SCID mice; conditions: 5 mg/kg i.p. 1/week, approximately 2 weeks
From the text: Hodgkin lymphoma cells, HD-MYZ (1 million), were implanted s.c. on the right flank of NOD-SCID mice (Cat#001303, female, 4-6 weeks from Jackson laboratories, Bar Harbor, Me.). The mice were divided into four groups, 5 mice for each group. […] The tumor growth was monitored during the experiment. […] (FIG. 13)

[5] = system: Hodgkin Lymphoma cells, HD-MYZ; assay: Hodgkin lymphoma xenograft model, MK0557 vs AVASTIN (Example 14); format: in vivo, NOD-SCID mice; conditions: 5 mg/kg i.p. 1/week×3 weeks
From the text: Hodgkin lymphoma cells, HD-MYZ, were implanted in NOD-SCID mice. […] Tumor volume and tumor growth were monitored during the experiment.

[6] = group 2: 200464 20 mg/kg i.p. 3 times for each week
[7] = group 3: 200464 40 mg/kg i.p. 3 times for each week

For `O=c1[nH]cc(F)c(=O)[nH]1` [5-FU, 5-fluorouracil], the tumor growth [1] was “inhibited tumor growth”, the “Mean Tumor Volume” value [2] was 434.44±56.63 mm^3 and the “Mean Tumor Weight” value [2] was 0.1892 ± 0.026 g. The “inhibition rate (tumor volume)” value ([2]; versus vehicle) was 32.35% and the “inhibition rate (tumor weight)” value ([2]; versus vehicle) was 26.55%.

For `CC[C@@H]1C(=O)N(C)c2cnc(Nc3ccc(C(=O)NC4CCN(C)CC4)cc3OC)nc2N1C1CCCC1` [compound 200464], the Mean Tumor Volume [3, 6] was 754.55+/−158.32 mm^3, the Mean Tumor Weight [3, 6] was 0.8788 ± 0.2674 g and the “inhibition rate (tumor volume)” value [3, 6] was 62.26%. For the same compound, the “inhibition rate (tumor weight)” value [3, 6] was 5.42%, the Mean Tumor Volume [3, 7] was 565.75+/−176.13 mm^3 and the Mean Tumor Weight [3, 7] was 0.5472 ± 0.2097 g. For the same compound, the “inhibition rate (tumor volume)” value [3, 7] was 49.66%, the “inhibition rate (tumor weight)” value [3, 7] was 41.11% and the “tolerability of the doses by the mice” value ([3]; mouse, in vivo) was “well tolerated”.

For bevacizumab [AVASTIN®], the tumor growth [4] was “inhibited tumor growth”, the “Mean Tumor Volume” value [5] was 672.53±85.56 mm^3 and the “Mean Tumor Weight” value [5] was 0.33 ± 0.03 g. The “inhibition rate (tumor volume)” value ([5]; versus vehicle) was 74.14% and the “inhibition rate (tumor weight)” value ([5]; versus vehicle) was 86.96%.
